# Measured values taken from patent US8476035B2, “Agent that modulates physiological condition of pests, involved in insect choline acetyltransferase activity” (Sumitomo Chemical Company, Limited, priority 2007, dated 2013).
# Read-outs that look alike come from different tables or passages of the source.
# Columns and labels:
# [1] = molecular target: cotton aphid choline acetyltransferase (Aphis gossypii, UniProt A0A9P0JF82); assay: Inhibition of cotton aphid choline acetyltransferase activity (DTNB colorimetric in vitro assay); assay type: biochemical; details: for inhibition at 10 µM: test compound in DMSO at final concentration 10 μM, relative to DMSO control, read-out: Activity of inhibiting choline acetyltransferase activity (inhibition degree (%) at 10 μM addition)
# cotton aphid choline acetyltransferase, sequence (A0A9P0JF82 entry or part of it): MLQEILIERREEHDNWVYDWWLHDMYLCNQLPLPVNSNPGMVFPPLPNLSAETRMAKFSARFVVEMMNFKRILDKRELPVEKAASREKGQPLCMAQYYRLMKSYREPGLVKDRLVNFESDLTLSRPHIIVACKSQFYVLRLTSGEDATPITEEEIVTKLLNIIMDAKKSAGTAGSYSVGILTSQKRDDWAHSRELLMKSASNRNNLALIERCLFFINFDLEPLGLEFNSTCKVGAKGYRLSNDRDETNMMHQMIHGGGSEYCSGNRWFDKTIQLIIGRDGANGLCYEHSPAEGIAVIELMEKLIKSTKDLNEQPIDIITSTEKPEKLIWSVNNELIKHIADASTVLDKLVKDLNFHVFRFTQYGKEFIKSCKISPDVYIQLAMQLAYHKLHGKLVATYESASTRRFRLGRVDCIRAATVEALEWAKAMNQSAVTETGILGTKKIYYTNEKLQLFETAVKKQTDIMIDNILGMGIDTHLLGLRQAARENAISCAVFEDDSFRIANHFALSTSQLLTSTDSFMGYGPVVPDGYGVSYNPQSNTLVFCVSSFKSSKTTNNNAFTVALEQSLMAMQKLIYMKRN
# Experimental: Selection of a compound which modulates a choline acetyltransferase activity was performed in a system for measuring and evaluating the choline acetyltransferase activity, the activity being modulated by adding a test compound to an in vitro reaction system using the cotton aphid choline acetyltransferase prepared in Example 7.
# As for a measurement of the cotton aphid choline acetyltransferase activity, after the enzymatic reaction of choline acetyltransferase using acetyl-CoA and choline as substrates, free CoA formed by choline acetyltransferase reaction was measured using 5,5′-dithio-bis(2-nitrobenzoic acid) (DTNB) reagent. DTNB reacts with free thiol groups in solution to produce 5-thio-2-nitrobenzoic acid (TNB). TNB is yellow and has absorption maximum at 412 nm. The produced TNB was measured […] to calculate choline acetyltransferase activity.
# For measuring the activity, the activity of the aphid choline acetyltransferase was measured when a test compound dissolved in DMSO was contained to a final concentration of 10 μM. In addition, the activity of the aphid choline acetyltransferase was measured when DMSO was contained in place of a test compound. Then, a ratio (%) of a measured value of the activity of the aphid choline acetyltransferase when a test compound dissolved in DMSO was contained, relative to a measured value of the activity of aphid choline acetyltransferase when DMSO was contained in place of the test compound was calculated, and a value obtained by subtracting the calculated value from 100% was adopted as an inhibition degree (%). The results in each test compound are shown in Table 4 in Example 9 together with results of Example 9.
# The activity of aphid choline acetyltransferase was measured when a test compound dissolved in DMSO was contained to a final concentration of each concentration of 100 μM, 30 μM, 10 μM, 3 μM, 1 μM, 0.3 μM, 0.1 μM or 0.03 μM. IC50 (μM) was calculated from the result of each concentration at each test compound using a concentration-dependent test analyzing software XL fit (manufactured by idbs). The results are shown in Table 5 in Example 10 together with results of Example 9.
# [2] = tested on: Aphis gossypii; assay: Pesticidal activity test (artificial feed rearing of Aphis gossypii); assay type: in vivo; details: 50 ppm test compound in artificial feed; surviving Aphis gossypii counted after six days; significant controlling value (e.g. 30% or more) = pesticidal activity
# [3] = concentrations 0.03-100 μM, XLfit, recombinant cotton aphid enzyme, read-out: Activity of inhibiting choline acetyltransferase activity (IC50)
# [4] = recombinant cotton aphid enzyme
Structure (SMILES),"IC50 [1, 3]","inhibition at 10 µM [1, 4]",Result of Example 9: Determination result of pesticidal activity [2],IC50 [1]
CN(C)CCC(c1ccc(Cl)cc1)c1ccccn1.O=C(O)/C=C\C(=O)O (racemic) [DL-Chlorpheniramine Maleate],> 100 µM,,,
COc1cc(N)c(Cl)cc1C(=O)NC1CCN(CCCOc2ccc(F)cc2)CC1OC (stereo not drawn) [Cisapride],> 100 µM,,,
ICC1CSc2nncn21 (stereo not drawn) [DD03493],23.8 µM,49%,Presence of pesticidal,
O/N=C(\CBr)c1ccccc1 [DD05314],,50%,Presence of pesticidal,
"CN(C)CCC(=O)c1cccc2ccccc12.Cl [α-NEDA, 2-(α-naphthoyl)ethyl-dimethylammonium chloride]",,,,33.5 µM
"C[N+](C)(C)CCC(=O)c1cccc2ccccc12.[I-] [α-NETA, 2-(α-naphthoyl)ethyl-trimethylammonium iodide]",,,,1.5 µM
